Reference: patent US20240174744A1, “METHODS OF TREATMENT USING PROTEIN BINDERS TO IRHOM2 EPITOPES” (SCIRHOM GMBH, priority 2021, published 2024)

Test system: LPS-induced release of TNFα from PBMCs from healthy donors
Experiment: ELISA-based TNFα release assay, PBMCs from healthy donors
Assay type: cell-based
Details: Homo sapiens, PBMC; recombinant murine antibodies 1 μg/ml; Batimastat 10 μM; LPS 50 ng/ml, 2 hours
Description: In the following study, ELISA-based TNFα release assays were performed to analyze the inhibitory effects of the antibodies of the present disclosure on LPS-induced release of endogenous TNFα from primary human material obtained from healthy donors using peripheral blood mononuclear cells (PBMCs).
In brief, on day 1, Nunc black MaxiSorp® 96-well plates (Thermo Fisher Scientific, USA) were coated overnight with 100 μl per well of mouse anti-human TNFα capture antibody (provided as part of the DuoSet ELISA kit) at 4 μg/ml TBS at 4° C. On day 2, the capture antibody solution was removed and MaxiSorp® plates were blocked with 300 μl per well of TBS, 1% BSA at room temperature for 3 hours. […] Using an infinite M1000 (Tecan Group, Switzerland) microplate reader, the fluorescence of each well was collected at an excitation wavelength of 435 nm and an emission wavelength of 555 nm.

For `CNC(=O)[C@H](Cc1ccccc1)NC(=O)[C@H](CC(C)C)[C@H](CSc1cccs1)C(=O)NO` [Batimastat], the inhibition at 10 µM was 99.6%.
